From patent US20250340574A1, “MODULATORS OF CYSTIC FIBROSIS TRANSMEMBRANE CONDUCTANCE REGULATOR” (Vertex Pharmaceuticals Incorporated, priority 2022, published 2025)

Experiments:
Type in all cases: cell-based
[1] = target: T1, CFTR (F508del/MF-HBE cells) (Homo sapiens, UniProt P13569, DEL508-508); assay: Ussing chamber assay of CFTR-mediated short-circuit currents, Assay B (0.00001 μM to 25 μM, 12 concentrations); conditions: with 33 nM potentiator and 18 μM Tezacaftor, 20% human serum; for Emax: read-out: B Max activity (%)
T1 construct: human bronchial epithelial (HBE) cells derived from CF subjects heterozygous for F508del and a minimal function CFTR mutation (F508del/MF-HBE); endogenous in cells; host or cells: Primary human bronchial epithelial cells from CF subjects (F508del/MF genotype), differentiated at an air-liquid interface
Method: (§1) Ussing chamber experiments were performed using human bronchial epithelial (HBE) cells derived from CF subjects heterozygous for F508del and a minimal function CFTR mutation (F508del/MF-HBE) and cultured as previously described (Neuberger T, Burton B, Clark H, Van Goor F Methods Mol Biol 2011:741:39-54). After four days the apical media was removed, and the cells were grown at an air liquid interface for >14 days prior to use.
(§2) To isolate the CFTR-mediated short-circuit (ISC) current, F508del/MF-HBE grown on Costar® Snapwell™ cell culture inserts were mounted in an Ussing chamber and the transepithelial ISC was measured under voltage-clamp recording conditions (Vhold=0 mV) at 37° C. The basolateral solution contained (in mM) 145 NaCl, 0.83 K2HPO4, 3.3 KH2PO4, 1.2 MgCl2, 1.2 CaCl2, 10 Glucose, 10 HEPES (pH adjusted to 7.4 with NaOH) and the apical solution contained (in mM) 145 NaGluconate, 1.2 MgCl2, 1.2 CaCl2, 10 glucose, 10 HEPES (pH adjusted to 7.4 with NaOH) and 30 μM amiloride to block the epithelial sodium channel. Forskolin (20 μM) was added to the apical surface to activate CFTR, followed by apical addition of a CFTR inhibitor cocktail consisting of BPO, GlyH-101, and CFTR inhibitor 172 (each at 20 μM final assay concentration) to specifically isolate CFTR currents. The CFTR-mediated ISC (μA/cm^2) for each condition was determined from the peak forskolin response to the steady-state current following inhibition.
(§3) The activity of the CFTR corrector compounds on the CFTR-mediated ISC was determined in Ussing chamber studies as described above. The F508del/MF-HBE cell cultures were either incubated with the corrector compounds at a range of concentrations in combination with 33 nM (6R,12R)-17-amino-12-methyl-6,15-bis(trifluoromethyl)-13,19-dioxa-3,4,18-triazatricyclo[12.3.1.12,5]nonadeca-1(18),2,4,14,16-pentaen-6-ol and 18 μM Tezacaftor or were incubated with the corrector compounds at a single fixed concentration of 1 μM in combination with 44 nM (6R,12R)-17-amino-12-methyl-6,15-bis(trifluoromethyl)-13,19-dioxa-3,4,18-triazatricyclo[12.3.1.12,5]nonadeca-1(18),2,4,14,16-pentaen-6-ol and 18 μM Tezacaftor for 18-24 hours at 37° C. and in the presence of 20% human serum. The concentration of corrector compounds with 44 nM or 33 nM (6R,12R)-17-amino-12-methyl-6,15-bis(trifluoromethyl)-13,19-dioxa-3,4,18-triazatricyclo[12.3.1.12,5]nonadeca-1(18),2,4,14,16-pentaen-6-ol and 18 μM Tezacaftor during the 18-24 hours incubations was kept constant throughout the Ussing chamber measurement of the CFTR-mediated ISC to ensure compounds were present throughout the entire experiment. The efficacy and potency of the putative F508del correctors was compared to that of the known Vertex corrector, (14S)-8-[3-(2-{Dispiro[2.0.2.1]heptan-7-yl}ethoxy)-1H-pyrazol-1-yl]-12,12-dimethyl-2λ^6-thia-3,9,11,18,23-pentaazatetracyclo[17.3.1.111,14.05,10]tetracosa-1(22),5,7,9,19(23),20-hexaene-2,2,4-trione, in combination with 18 μM Tezacaftor and 1 μM Ivacaftor.
(§4) • Assay A: 0.1 μM to 25 μM, 6 concentrations • Assay B: 0.00001 μM to 25 μM, 12 concentrations • Assay C: 0.026 μM to 25 μM, 6 concentrations • Assay D: Activity at single concentration of 1 μM

[2] = target: T1, CFTR (F508del/MF-HBE cells); assay: Ussing chamber assay of CFTR-mediated short-circuit currents, Assay A (0.1 μM to 25 μM, 6 concentrations); conditions: with 33 nM potentiator and 18 μM Tezacaftor, 20% human serum; for Emax: 18-24 hours, read-out: A Max activity (%)
Method: as §1, §2, §3, §4

[3] = target: T1, CFTR (F508del/MF-HBE cells); assay: Ussing chamber assay of CFTR-mediated short-circuit currents, Assay C (0.026 μM to 25 μM, 6 concentrations); conditions: with 33 nM potentiator and 18 μM Tezacaftor, 20% human serum; for Emax: read-out: C Max activity (%)
Method in brief: (§5)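 Short-circuit current was recorded at 37 °C under voltage clamp (0 mV) with amiloride 30 μM apically, forskolin 20 μM activation, then BPO/GlyH-101/inh-172 (20 μM each) to isolate CFTR current. Before recording, corrector exposure lasted 18–24 h with 18 μM tezacaftor, 20% human serum, and 33 nM (dose–response) or 44 nM (1 μM fixed) potentiator, maintained throughout.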

[4] = target: T1, CFTR (F508del/MF-HBE cells); assay: Ussing chamber assay of CFTR-mediated short-circuit currents, Assay D (single concentration of 1 μM); conditions: with 44 nM potentiator and 18 μM Tezacaftor, 18-24 hours, 20% human serum
Method in brief: as §5

T1 sequence (P13569 with tags, fused parts or gaps DEL508-508): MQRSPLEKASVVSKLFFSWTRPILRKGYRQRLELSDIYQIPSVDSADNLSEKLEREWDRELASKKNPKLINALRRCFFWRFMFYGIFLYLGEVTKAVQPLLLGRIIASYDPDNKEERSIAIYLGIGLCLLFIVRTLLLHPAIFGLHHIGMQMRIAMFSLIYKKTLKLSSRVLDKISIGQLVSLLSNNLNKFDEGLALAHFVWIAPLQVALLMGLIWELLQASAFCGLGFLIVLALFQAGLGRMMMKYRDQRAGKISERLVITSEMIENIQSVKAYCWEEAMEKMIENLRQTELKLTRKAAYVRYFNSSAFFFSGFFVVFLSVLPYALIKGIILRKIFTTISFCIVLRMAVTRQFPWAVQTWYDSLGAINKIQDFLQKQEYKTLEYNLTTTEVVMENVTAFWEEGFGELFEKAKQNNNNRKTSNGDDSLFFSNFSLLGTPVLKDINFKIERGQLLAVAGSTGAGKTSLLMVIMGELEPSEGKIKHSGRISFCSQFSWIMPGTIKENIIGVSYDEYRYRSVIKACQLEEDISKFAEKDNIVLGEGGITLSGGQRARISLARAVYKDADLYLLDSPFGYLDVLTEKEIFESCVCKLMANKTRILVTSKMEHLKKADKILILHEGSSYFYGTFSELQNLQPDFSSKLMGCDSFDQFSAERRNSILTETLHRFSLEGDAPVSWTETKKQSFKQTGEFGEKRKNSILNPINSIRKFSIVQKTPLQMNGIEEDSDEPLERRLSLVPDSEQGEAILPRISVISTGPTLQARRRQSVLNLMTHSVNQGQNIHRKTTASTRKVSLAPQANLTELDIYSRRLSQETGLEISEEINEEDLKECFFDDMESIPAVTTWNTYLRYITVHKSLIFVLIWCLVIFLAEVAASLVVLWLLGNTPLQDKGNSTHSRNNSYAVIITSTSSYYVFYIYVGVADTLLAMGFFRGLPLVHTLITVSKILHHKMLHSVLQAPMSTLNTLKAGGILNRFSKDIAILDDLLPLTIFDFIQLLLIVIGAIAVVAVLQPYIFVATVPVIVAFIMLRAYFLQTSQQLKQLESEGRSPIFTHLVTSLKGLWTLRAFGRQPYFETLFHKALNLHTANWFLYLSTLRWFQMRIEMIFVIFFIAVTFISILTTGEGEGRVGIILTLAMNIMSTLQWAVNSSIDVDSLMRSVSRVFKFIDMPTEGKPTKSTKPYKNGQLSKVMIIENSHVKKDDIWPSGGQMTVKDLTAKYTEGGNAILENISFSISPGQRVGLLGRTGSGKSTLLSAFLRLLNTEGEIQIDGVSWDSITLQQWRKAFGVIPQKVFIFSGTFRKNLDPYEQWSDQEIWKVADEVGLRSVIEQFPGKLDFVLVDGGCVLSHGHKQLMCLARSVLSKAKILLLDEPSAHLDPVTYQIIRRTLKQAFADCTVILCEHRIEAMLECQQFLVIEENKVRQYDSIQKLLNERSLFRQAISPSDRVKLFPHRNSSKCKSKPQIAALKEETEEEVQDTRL

Emax ([1]; 18-24 hours)	EC50 [1]	Emax [2]	EC50 [2]	SMILES	other results
> 60%	1 to 3 µM	> 60%	< 1000 nM	Cc1cccc(CC(C)C)c1-c1nc2nc(c1C)OC[C@@H](CC(C)(C)C)N(Cc1cnc3oc(C(C)C)cc3n1)C(=O)c1cccc(c1)S(=O)(=O)N2 (atropisomer, axis not shown) [Compound I-65]	–
> 60%	< 1 µM	> 60%	< 1000 nM	Cc1cccc(CC(C)C)c1-c1nc2nc(c1C)OC[C@@H](CC(C)(C)C)N(Cc1cnc3cc(C(C)C)n(C)c3n1)C(=O)c1cccc(c1)S(=O)(=O)N2 (atropisomer, axis not shown) [Compound I-82]	–
–	< 1 µM	–	–	COCCc1c(C(C)(C)C)n(C)c2nc(CN3C(=O)c4cccc(c4)S(=O)(=O)Nc4nc(c(OC)c(-c5c(C)cccc5CC(C)C)n4)OC[C@H]3CC(C)(C)C)cnc12 (atropisomer, axis not shown) [IV-94]	Emax [1]: > 60%; EC50 [3]: < 1000 nM; Emax [3]: > 60%
> 60%	3 to 30 µM	–	–	Cc1cccc(C)c1-c1cc2nc(n1)NS(=O)(=O)c1cccc(c1)C(=O)N(Cc1cnc3oc(C4CC4)cc3n1)[C@H](CC1CCCC1)CO2 [Compound I-61]	–
–	–	> 60%	< 1000 nM	Cc1cccc(C)c1-c1cc2nc(n1)NS(=O)(=O)c1cccc(c1)C(=O)N(Cc1cnc3cc(C(C)C)n(C)c3n1)[C@H](CC1C3(CC3)C13CC3)CO2 [Compound I-100]	–
–	–	> 60%	< 1000 nM	Cc1cccc(C)c1-c1cc2nc(n1)NS(=O)(=O)c1cccc(c1)C(=O)N(Cc1cnc3oc(C(C)C)cc3n1)[C@H](CC1C3(CC3)C13CC3)CO2 [Compound I-101]	–
–	–	> 60%	< 1000 nM	Cc1cccc(C)c1-c1cc2nc(n1)NS(=O)(=O)c1cccc(c1)C(=O)N(Cc1cnc3oc(C4CC4)cc3n1)[C@H](CC1C3(CC3)C13CC3)CO2 [Compound I-102]	–
–	–	> 60%	< 1000 nM	Cc1cccc(C)c1-c1cc2nc(n1)NS(=O)(=O)c1cccc(c1)C(=O)N(Cc1cnc3cc(C(C)C)n(C)c3n1)[C@H](CCC(C)(C)F)CO2 [Compound I-106]	–
–	–	> 60%	< 1000 nM	Cc1cccc(C)c1-c1cc2nc(n1)NS(=O)(=O)c1cccc(c1)C(=O)N(Cc1cnc3oc(C4CC4)cc3n1)[C@H](CCC(C)(C)F)CO2 [Compound I-107]	–
> 60%	3 to 30 µM	–	–	Cc1cccc(C)c1-c1cc2nc(n1)NS(=O)(=O)c1cccc(c1)C(=O)N(Cc1cnc3oc(C4CC4)cc3n1)[C@H](COC1CCCC1)CO2 [Compound I-118]	–
> 60%	3 to 30 µM	–	–	Cc1cccc(C)c1-c1cc2nc(n1)NS(=O)(=O)c1cccc(c1)C(=O)N(Cc1cnc3oc(C4CC4)cc3n1)[C@H](CCC(C)C)CO2 [Compound I-130]	–
> 60%	3 to 30 µM	–	–	Cc1cccc(C)c1-c1cc2nc(n1)NS(=O)(=O)c1cccc(c1)C(=O)N(Cc1cnc3oc(C4CCC4)cc3n1)[C@H](COC(C)C)CO2 [Compound I-138]	–
> 60%	3 to 30 µM	–	–	Cc1cccc(C)c1-c1cc2nc(n1)NS(=O)(=O)c1cccc(c1)C(=O)N(Cc1cnc3nc(C4CC4)n(C)c3n1)[C@H](COC(C)C)CO2 [Compound I-139]	–
> 60%	3 to 30 µM	–	–	Cc1cccc(C)c1-c1cc2nc(n1)NS(=O)(=O)c1cccc(c1)C(=O)N(Cc1cnc3cc(C4CC4)n(C)c3n1)[C@H](COC(C)C)CO2 [Compound I-151]	–
> 60%	< 1 µM	–	–	Cc1cccc(C)c1-c1nc2nc(c1C)OC[C@@H](CC(C)(C)C)N(Cc1cnc3nc(C(C)C)n(C)c3n1)C(=O)c1cccc(c1)S(=O)(=O)N2 [Compound I-167]	–
> 60%	< 1 µM	–	–	Cc1cccc(C)c1-c1nc2nc(c1C)OC[C@@H](COC(C)C)N(Cc1cnc3cc(C(C)(C)C)n(C)c3n1)C(=O)c1cccc(c1)S(=O)(=O)N2 [Compound I-182]	D activity at 1 μM (%) [4]: +++ (+++ is >60%); Emax ([3]; 18-24 hours): > 60%; EC50 [3]: < 1000 nM
–	–	> 60%	< 1000 nM	Cc1cccc(C)c1-c1cc2nc(n1)NS(=O)(=O)c1cccc(c1)C(=O)N(C(=O)c1cncc(N(C)C3CCC3)n1)[C@H](CC(C)(C)C)CO2 [II-32]	–
–	–	30 to 60%	1000 to 3000 nM	Cc1cccc(C)c1-c1cc2nc(n1)NS(=O)(=O)c1cccc(c1)CN(C(=O)c1cncc(N(C)C3CCC3)n1)[C@H](CC(C)(C)C)CO2 [II-36]	–
–	–	> 60%	< 1000 nM	Cc1cccc(C)c1-c1cc2nc(n1)NS(=O)(=O)c1cccc(c1)C(=O)N(Cc1cn3ccc(C(C)C)cc3n1)[C@H](CC(C)(C)C)CO2 [III-1, (11R)-6-(2,6-dimethylphenyl)-11-(2,2-dimethylpropyl)-12-[(7-isopropylimidazo[1,2-a]pyridin-2-yl)methyl]-2,2-dioxo-9-oxa-2λ^6-thia-3,5,12,19-tetrazatricyclo[12.3.1.14,8]nonadeca-1(18),4(19),5,7,14,16-hexaen-13-one]	–
–	–	> 60%	< 1000 nM	Cc1cccc(C)c1-c1cc2nc(n1)NS(=O)(=O)c1cccc(c1)C(=O)N(Cc1nc3c(C(C)C)cccc3o1)[C@H](CC(C)(C)C)CO2 [III-7]	–
–	–	> 60%	< 1000 nM	Cc1cccc(C)c1-c1cc2nc(n1)NS(=O)(=O)c1cccc(c1)C(=O)N(Cc1cn3cccc(C#N)c3n1)[C@H](CC(C)(C)C)CO2 [III-10]	–
–	–	> 60%	< 1000 nM	Cc1cccc(C)c1-c1cc2nc(n1)NS(=O)(=O)c1cccc(c1)C(=O)N(Cc1cn3cccc(N)c3n1)[C@H](CC(C)(C)C)CO2 [III-12]	–
–	< 1 µM	–	–	Cc1cccc(CC(C)C)c1-c1nc2nc(c1C)OC[C@@H](CC13CC(C1)C3)N(Cc1cnc3cc(C(C)(C)C)n(C)c3n1)C(=O)c1cccc(c1)S(=O)(=O)N2 [IV-1]	Emax [1]: > 60%

SMILES	Emax ([1]; 18-24 hours)	EC50 [1]	Emax [2]	EC50 [2]	other results
Cc1cccc(CC(C)C)c1-c1nc2nc(c1C)OC[C@@H](CC(C)(C)C)N(Cc1cnc3cc(C(C)(C)C)n(C)c3n1)C(=O)c1cccc(c1)S(=O)(=O)N2 [Compound I-206, (5P,11R)-12-({6-tert-butyl-5-methyl-5H-pyrrolo[2,3-b]pyrazin-3-yl}methyl)-11-(2,2-dimethylpropyl)-7-methyl-6-[2-methyl-6-(2-methylpropyl)phenyl]-9-oxa-2λ^6-thia-3,5,12,19-tetraazatricyclo[12.3.1.1∧{4,8}]nonadeca-1(17),4(19),5,7,14(18),15-hexaene-2,2,13-trione]	–	< 1 µM	–	–	B Max activity (%) ([1]; 18-24 hours): +++ (+++ is >60%); C Max activity (%) ([3]; 18-24 hours): +++ (+++ is >60%); EC50 [3]: < 1000 nM
